Series [1] concerns Jurkat. Kind of series: Induction of ROS generation in human Jurkat cells at 5 uM measured after 4 hrs by DCFH-DA staining based flourescence assay relative to H2O2. Type of series: functional, cell-based.
In series [2] the test system is Jurkat. Kind of series: Cytotoxicity against human Jurkat cells assessed as cell growth inhibition measured after 72 hrs by CCK8 assay. Type of series: functional, cell-based. For orientation: Formazan colour is commonly taken as a measure of viable cells.
Series [3] relates to A549. Description: Cytotoxicity against human A549 cells assessed as cell growth inhibition measured after 72 hrs by CCK8 assay. In kind it is functional, cell-based. The settings on record: A549, 72 h.
For series [4], the system named is Caco-2. Kind of series: Cytotoxicity against human Caco-2 cells assessed as cell growth inhibition measured after 72 hrs by CCK8 assay. Type of series: functional, cell-based. The following applies: Caco-2, 72 h.
The nature of series [5]: Cytotoxicity against human KPL-4 cells assessed as cell growth inhibition measured after 72 hrs by CCK8 assay. Type of series: functional, cell-based. The following applies: KPL4, 72 h.
Series [6] concerns Jurkat. Description: Induction of ROS generation in human Jurkat cells at 1 uM measured after 2 hrs by DCFH-DA staining based flourescence assay relative to H2O2. In kind it is functional, cell-based.
The subject of series [7] is Jurkat. Description: Antagonistic cytotoxicity against human Jurkat cells assessed as decrease in cell viability at 0.1 to 25 uM measured after 72 hrs in presence of vorinostat. The settings on record: dose 0.1-25 µM. In kind it is functional, cell-based.
Series [8] relates to Jurkat. Kind of series: Induction of ROS generation in human Jurkat cells assessed as increase in intracellular ROS level measured after 4 hrs in presence of vorinostat. Type of series: functional, cell-based.
Series [9] can be described thus: Half life in human serum incubated up to 24 hrs by HPLC analysis. In kind it is ADME, cell-free.
In series [10] the test system is Staphylococcus aureus. Description: Antibacterial activity against methicillin-resistant Staphylococcus aureus. Type of series: functional.

Converted amounts (≈) assume the structure as drawn. The source made the active and inactive calls.

The IC50 is the midpoint of a concentration-inhibition curve. In general, half-life refers to how long it takes for the measured level to halve. A low value points to fast loss. A word on the MIC: it is the smallest concentration in the dilution series that meets the test's criterion for growth inhibition. A low value points to greater potency.

In the case of `CC12CC34CC[C@H](OC(=O)c5ccc(NCc6cc(O)ccc6O)cc5)[C@@](C)(CCCOC(=O)c5ccc(NCc6cc(O)ccc6O)cc5)C3C(CC1C4)O2` (stereo not given in full), the result in series [1], in series [6], in series [7] and in series [8] was Active. For the same compound, the IC50 in series [2] turned out to be 5 µM; in series [3] it was 9.6 µM; in series [4] it was 7 µM; in series [5], 7.7 µM. Moreover, the half-life in series [9] is 12 h.

Compound `C[C@]12C[C@@]34C=CC(=O)[C@@](C)(CCC(=O)Nc5c(O)ccc(C(=O)O)c5O)[C@@H]3[C@H](C[C@@H]1C4)O2` had an MIC in series [10] of 0.2 µg/mL (≈ 0.453 µM).

For `O=C(NNC(=O)C12CC3CC(CC(C3)C1)C2)c1ccc(NCc2cc(O)ccc2O)cc1`, the IC50 in series [2] is 16 µM; in [3] it was greater than 100 µM; in series [4], greater than 100 µM; in series [5], greater than 100 µM.

Turning to `COC(=O)c1ccc(NCc2cc(O)ccc2O)cc1`, the IC50 in series [2] is 13.1 µM; in [3] it was 23.2 µM; in [4] it was 15.1 µM; in series [5] it was 15.6 µM. In series [9], this compound showed a half-life of 3 h.

For `CC12CC34CC[C@H](O)[C@@](C)(CCCO)C3C(CC1C4)O2` (stereo not given in full), the IC50 in series [2] is 7.3 µM; in series [3], 35.9 µM; in series [4], 37.5 µM; in series [5] it was 2.7 µM. In [9], this compound gave a half-life of 5 h.

With `C[C@@]1(CCC(=O)Nc2c(O)ccc(C(=O)O)c2O)C(=O)C=CC23CC4CC(CC(C4)C21)C3` (stereo not given in full), the MIC in [10] stood at 1.3 µg/mL (≈ 2.96 µM).

`O=C(OC12CC3CC(CC(C3)C1)C2)c1ccc(NCc2cc(O)ccc2O)cc1`: the concentration for half-maximal inhibition (IC50) in [2] was found to be 3.1 µM; in series [3] it was 20.1 µM; in series [4] it was 8 µM; in series [5], 4.6 µM. For the same compound, the result in series [6] was Active. Further, the outcome in series [7] was inactive. In series [9], this compound showed a half-life of 12 h.

Turning to `O=C(O)c1ccc(NCc2cc(O)ccc2O)cc1`, the IC50 in series [2] was 20.4 µM; in series [3], greater than 100 µM; in [4], 49.8 µM; in series [5], greater than 100 µM.

Take `CC12CC34C=CC(=O)[C@@](C)(CCC(=O)NNC(=O)c5ccc(NCc6cc(O)ccc6O)cc5)C3C(CC1C4)O2` (stereo not given in full): the IC50 in [2] is greater than 100 µM; in [3], greater than 100 µM; in [4], 65.2 µM; in series [5], greater than 100 µM.
